The record followed here is paper PMC5791048 (Journal of Natural Products, 2017).

The nature of this data set: A549 cytotoxicity assay. The note with it: human, A549 cells (human lung carcinoma). The data set is classed as cell-based.

Each structure is given as a SMILES string.

As usually defined, the IC50 is the midpoint of a concentration-inhibition curve. The molecule `C=C(C)[C@H]1CC2=C(C=O)C=C(O2)[C@H]2O[C@]2(C)C[C@H]2C=C(C(=O)O2)[C@@H](OC(C)=O)C1` [keikipukalide E (5), keikipukalide E] displayed an IC50 at 72 h above 50 µg/mL.

The molecule `C=C(C)[C@@H]1CC(=O)[C@H]2[C@H](C1)[C@@H]1C(=O)O[C@@H]3C[C@]4(C)O[C@H]2C(=O)[C@@H]4[C@H]13` [ineleganolide (7), ineleganolide] yielded an IC50 at 72 h above 50 µg/mL.

`C=C(C)[C@@H]1C/C=C2\C(=O)O[C@@H](C[C@@]3(C)O[C@@H]3C3=CC(C=O)=C(C1)O3)[C@@H]2OC(C)=O` [keikipukalide C (3), keikipukalide C]: the IC50 at 72 h was above 50 µg/mL.

`C=C(C)[C@@H]1CCC2=C[C@H](C[C@@]3(C)O[C@@H]3C3=CC(C=O)=C(C1)O3)OC2=O` [pukalide aldehyde (6), pukalide aldehyde] registered an IC50 at 72 h above 50 µg/mL.

Consider `C=C(C)[C@H]1CC2=C(C=O)C=C(O2)[C@H]2O[C@]2(C)C[C@@H]2OC(=O)/C(=C\[C@H]1OC(C)=O)[C@H]2OC(C)=O` [keikipukalide B (2), keikipukalide B], for which the IC50 at 72 h is above 50 µg/mL.

`C=C(C)[C@@H]1/C=C/[C@]23O[C@H]2[C@H](C[C@](C)(O)[C@@H](OC(C)=O)C2=CC(C=O)=C(C1)O2)OC3=O` [keikipukalide D (4), keikipukalide D]: the IC50 at 72 h was above 50 µg/mL.

The molecule `C=C(C)[C@@H]1/C=C/[C@]23O[C@H]2[C@H](C[C@@]2(C)O[C@@H]2C2=CC(C=O)=C(C1)O2)OC3=O` [keikipukalide A (1), keikipukalide A] showed an IC50 at 72 h above 50 µg/mL.
